These are literature values, as cited in patent publication US20060088904A1, “Methods for the synthesis of astaxanthin” (priority 2004, published 2006).

The structures appear in SMILES notation.

In data set [1] the test system is peroxyl radical chain reaction in liposome systems. The conditions noted are these: appropriate dose.
Data set [2] relates to cigarette-smoke induced lung pathology. Conditions: ferret.
Data set [3] concerns transformed cells as well as normal prostatic epithelium. Conditions: cultured human cells; alone and/or in combination with other antioxidants (e.g. vitamin E).

In the case of `CC1=C(/C=C/C(C)=C/C=C/C(C)=C/C=C/C=C(C)/C=C/C=C(C)/C=C/C2=C(C)C(=O)C(O)CC2(C)C)C(C)(C)CC(O)C1=O` (stereo not drawn) [astaxanthin], in data set [1], the “suppression of peroxyl radical chain reaction” value was “completely suppress”.

For the molecule `CC(C)=CCC/C(C)=C/C=C/C(C)=C/C=C/C(C)=C/C=C/C=C(C)/C=C/C=C(C)/C=C/C=C(\C)CCC=C(C)C` [lycopene], the “protection against cigarette-smoke induced lung pathology” value in data set [2] is “protective”. For the same molecule, the growth inhibition entry in data set [3] was “growth inhibitory”.
